The nature of one series: log P by HPLC. The note with it: EEC directive 79/831 Annex V. A8 by HPLC (gradient method, acetonitrile/0.1% aqueous phosphoric acid). The format is physicochemical.
Usually logP stands for the decadic logarithm of the partition coefficient of the neutral form, usually between octanol and water. Lower therefore signals a more hydrophilic compound. In turn, `Cc1nc2nc(Cl)c(-c3ccccc3F)c(NOCc3ccc(Cl)cc3)n2n1` [compound 368] returned a logP of 3.3.

As for `Fc1ccc(-c2c(Cl)nc3nc(C4CC4)nn3c2N2CCCCC2)c(F)c1` [compound 517], the lipophilicity (logP) was determined as 4.03. Take `Cc1nc2nc(Cl)c(-c3c(F)cc(F)cc3F)c(NC3CC3F)n2n1` (centres unmarked) [compound 439]: the log partition coefficient (logP) is listed as 2.3.

Molecule `C=C(C)CNc1c(-c2c(F)cccc2Cl)c(Cl)nc2nc(C3CC3)nn12` [compound 483] came in with a logP of 3.31. The molecule `Cc1nc2nc(Cl)c(-c3c(F)cccc3Cl)c(N3CCC(O)C3)n2n1` (centres unmarked) [compound 278] had a logP of 2.02.

With `C#CCN(C)c1c(-c2c(F)cccc2Cl)c(Cl)nc2nc(C)nn12` [compound 271], the logP amounted to 2.77.

For `Fc1ccc(-c2c(Cl)nc3nc(C4CC4)nn3c2N2CCC(F)CC2)c(F)c1` [compound 513], the logP is reported as 3.45.

Regarding `Cc1nc2nc(Cl)c(-c3c(F)cccc3Cl)c(N3CCC(F)CC3)n2n1` [compound 266], the logP is 3.07. The molecule `CCCN(CC1CC1)c1c(-c2c(F)cccc2F)c(Cl)nc2nc(C)nn12` [compound 345] returned a logP of 3.83. Regarding `Cc1nc2nc(Cl)c(-c3ccccc3F)c(NOCc3cccc(Cl)c3)n2n1` [compound 367], the logP came to 3.28. Take `CC(C)CNc1c(-c2c(F)cccc2Cl)c(Cl)nc2nc(C3CC3)nn12` [compound 476]: the logP is 3.64. Still for that read-out and setting: the figure for `Cc1nc2nc(Cl)c(-c3c(F)cccc3F)c(Nc3ccc(F)cc3)n2n1` [compound 445] is 2.71. The same measure, in the same setting: the figure for `CC(=O)NC1CCN(c2c(-c3ccc(F)cc3F)c(Cl)nc3nc(C)nn23)C1` (centres unmarked) [compound 450] is 1.73; for `CONc1c(-c2ccccc2F)c(Cl)nc2nc(C)nn12` [compound 376] it is 2.03; for `Cc1nc2nc(Cl)c(-c3c(F)cccc3F)c(N3CCC(O)CC3)n2n1` [compound 307] it is 1.83.

The same series, now with this note: HPLC, gradient method, acetonitrile/0.1% aqueous phosphoric acid; EEC directive 79/831 Annex V. A8.
As for `CON(C)c1c(-c2c(F)cccc2F)c(Cl)nc2nc(C)nn12` [compound 143], the logP was 2.54. The same measure, in the same setting: next, `OC1CCCN(c2c(-c3ccc(F)cc3F)c(Cl)nc3nc(C(F)(F)F)nn23)C1` (centres unmarked) [compound 799]: 3.07.

Molecule `Cc1nc2nc(Cl)c(-c3c(F)cccc3F)c(N3CCCCC3)n2n1` [compound 171] came in with a lipophilicity (logP) of 3.17. In the case of `CCN(CC1CCCO1)c1c(-c2ccc(F)cc2F)c(Cl)nc2nc(C)nn12` (centres unmarked) [compound 208], the logP came to 3.18. Still for that read-out and setting: next, `CCCCN(CC)c1c(-c2ccccc2Cl)c(Cl)nc2nc(C)nn12` [compound 241]: 4.1; `OC1CCN(c2c(-c3ccc(F)cc3F)c(Cl)nc3nc(C4CC4)nn23)CC1` [compound 607]: 2.29; `CC(C)Nc1c(-c2ccc(F)cc2F)c(Cl)nc2nc(C3CC3)nn12` [compound 651]: 3.2. `Fc1cc(F)c(-c2c(Cl)nc3nc(C(F)(F)F)nn3c2N2CCCCC2)c(F)c1` [compound 104]: the logP was determined as 4.46. `CC1=CCCN(c2c(-c3ccccc3Cl)c(Cl)nc3nc(C)nn23)C1` [compound 231] yielded a logP of 3.7. For `C=C(C)CN(C)c1c(-c2ccc(F)cc2Cl)c(Cl)nc2nc(C3CC3)nn12` [compound 629], the logP is given as 4.41. The molecule `Cc1nc2nc(Cl)c(-c3ccc(F)cc3F)c(N(C)Cc3ccco3)n2n1` [compound 204] had a logP of 3.1.

`Cc1nc2nc(Cl)c(-c3c(F)cc(F)cc3F)c(NC(C)C(F)(F)F)n2n1` (centres unmarked) [compound 12] showed a logP of 3.01. `Fc1ccc(-c2c(Cl)nc3nc(C4CC4)nn3c2N2CC=CCC2)c(F)c1` [compound 608] displayed a logP of 3.72. Molecule `CCCN(CC1CC1)c1c(-c2ccc(F)cc2F)c(Cl)nc2nc(C3CC3)nn12` [compound 598] came in with a logP of 4.53. On the same count and under the same terms, the figure for `CCC(C)Nc1c(-c2c(F)cc(F)cc2F)c(Cl)nc2nc(C)nn12` (centres unmarked) [compound 147] is 3.1. The molecule `CCNc1c(-c2c(F)cc(F)cc2F)c(Cl)nc2nc(C)nn12` [compound 87] returned a logP of 2.44. Same read-out and setting: the figure for `CC(Nc1c(-c2ccc(Cl)cc2Cl)c(Cl)nc2nc(C3CC3)nn12)C(=O)O` (centres unmarked) [compound 774] is 2.7; for `Cc1nc2nc(Cl)c(-c3c(F)cc(F)cc3F)c(N3CCCC(O)C3)n2n1` (centres unmarked) [compound 99] it is 2.15; for `Fc1ccc(-c2c(Cl)nc3nc(C4CC4)nn3c2NCCC(F)(F)F)c(F)c1` [compound 648] it is 3.25. In turn, `CC(Nc1c(-c2ccc(F)cc2Cl)c(Cl)nc2nc(C3CC3)nn12)C(F)(F)F` (single isomer, unassigned) [compound 767] came in with a log partition coefficient (logP) of 3.73. Still for that read-out and setting: next, `CC1CCCCN1c1c(-c2c(F)cc(F)cc2F)c(Cl)nc2nc(C3CC3)nn12` (centres unmarked) [compound 674]: 4.6. As for `CC(C)(C)CNc1c(-c2c(F)cccc2F)c(Cl)nc2nc(C3CC3)nn12` [compound 762], the logP came to 3.9. The same measure, in the same setting: the figure for `Cc1nc2nc(Cl)c(-c3ccc(Cl)cc3Cl)c(NC(C)C(C)C)n2n1` (centres unmarked) [compound 788] is 4.06. For `CC(C)CC(C)Nc1c(-c2ccc(F)cc2F)c(Cl)nc2nc(C(F)(F)F)nn12` (centres unmarked) [compound 818], the logP is on record as 4.73. Turning to `Cc1nc2nc(Cl)c(-c3c(F)cc(F)cc3F)c(N3CCSC3)n2n1` [compound 112], the logP was found to be 2.84. Same read-out and setting: next, `CC1CCCN(c2c(-c3ccc(F)cc3F)c(Cl)nc3nc(C4CC4)nn23)C1` (centres unmarked) [compound 612]: 4.37.

Consider `C=C(C)CN(CC)c1c(-c2c(F)cc(F)cc2F)c(Cl)nc2nc(CC)nn12` [compound 15], for which the lipophilicity (logP) was found to be 4.34. `CN(CCC#N)c1c(-c2ccc(F)cc2F)c(Cl)nc2nc(C3CC3)nn12` [compound 718] registered a logP of 2.79. In turn, `Cc1cccc(Nc2c(-c3ccc(F)cc3F)c(Cl)nc3nc(C4CC4)nn23)c1` [compound 737] came in with a logP of 3.61.

With `Cc1cccc(Nc2c(-c3ccc(F)cc3F)c(Cl)nc3nc(C(F)(F)F)nn23)c1` [compound 812], the logP is recorded as 4.04. On to `Cc1nc2nc(Cl)c(-c3ccccc3Cl)c(NCC(C)C)n2n1` [compound 210], for which the logP amounted to 3.1. Still for that read-out and setting: next, `Cc1nc2nc(Cl)c(-c3c(F)cccc3F)c(NOCc3cccc(Cl)c3)n2n1` [compound 137]: 3.21; `Cc1nc2nc(Cl)c(-c3ccccc3Cl)c(N3CCCC3)n2n1` [compound 227]: 0.75; `Cc1nc2nc(Cl)c(-c3ccccc3Cl)c(N3CCCC(C)C3)n2n1` (centres unmarked) [compound 229]: 3.92. Molecule `CCCCN(CC)c1c(-c2ccccc2Cl)c(Cl)nc2nc(C)nn12` [compound 247] yielded a logP of 4.18. As for `CCN(CC)c1c(-c2c(F)cc(F)cc2F)c(Cl)nc2nc(C(F)(F)F)nn12` [compound 33], the log partition coefficient (logP) was 4.25.

`C=C(C)CN(C)c1c(-c2ccc(F)cc2F)c(Cl)nc2nc(C(F)(F)F)nn12` [compound 546]: the logP came out at 4.44. In turn, `CCOC(=O)CN(C)c1c(-c2c(F)cccc2F)c(Cl)nc2nc(C)nn12` [compound 562] came in with a logP of 2.62. `CN1CCN(c2c(-c3ccc(F)cc3F)c(Cl)nc3nc(C(F)(F)F)nn23)CC1` [compound 807]: the logP turned out to be 1.65. In the case of `COC(=O)C1CCCCN1c1c(-c2ccc(F)cc2F)c(Cl)nc2nc(C(F)(F)F)nn12` (centres unmarked) [compound 804], the logP was 4.32. For the molecule `Cc1nc2nc(Cl)c(-c3ccc(F)c(Cl)c3)c(NC(C)C)n2n1` [compound 82], the logP is listed as 3.01. Consider `CCc1nc2nc(Cl)c(-c3c(F)cc(F)cc3F)c(N3CCCCC3)n2n1` [compound 73], for which the logP is given as 3.94. In the case of `C=C(C)CN(CC)c1c(-c2ccc(F)cc2Cl)c(Cl)nc2nc(C3CC3)nn12` [compound 630], the logP came to 4.77.

Molecule `Fc1cc(F)c(-c2c(Cl)nc3nc(C(F)(F)F)nn3c2NCC2CC2)c(F)c1` [compound 111] showed a logP of 3.89.

Molecule `Cc1nc2nc(Cl)c(-c3c(F)cccc3Cl)c(NC(C)C(F)(F)F)n2n1` (centres unmarked) [compound 132] displayed a logP of 3.01. `Fc1ccc(Nc2c(-c3ccc(F)cc3F)c(Cl)nc3nc(C4CC4)nn23)cc1` [compound 738] had a log partition coefficient (logP) of 3.27.

In the case of `COCCNc1c(-c2ccccc2Cl)c(Cl)nc2nc(C)nn12` [compound 236], the logP came out at 2.3. As for `Cc1nc2nc(Cl)c(-c3ccccc3Cl)c(NCC(C)(C)C)n2n1` [compound 211], the logP came out at 3.57. As for `C=CCN(C)c1c(-c2ccc(F)cc2F)c(Cl)nc2nc(C)nn12` [compound 203], the logP was determined as 3.06. Still for that read-out and setting: next, `CCNc1c(-c2c(F)cc(F)cc2F)c(Cl)nc2nc(C(F)(F)F)nn12` [compound 102]: 3.5; `CC1CN(c2c(-c3ccc(F)cc3F)c(Cl)nc3nc(C(F)(F)F)nn23)CC(C)O1` (centres unmarked) [compound 808]: 4.1; `CCc1nc2nc(Cl)c(-c3c(F)cc(F)cc3F)c(NCCOC)n2n1` [compound 78]: 2.68. Molecule `Cc1nc2nc(Cl)c(-c3ccc(F)cc3Cl)c(NC(C)C(F)(F)F)n2n1` (racemic) [compound 640] yielded a logP of 3.19.

`Fc1ccc(-c2c(Cl)nc3nc(C4CC4)nn3c2N2CCCCO2)c(F)c1` [compound 690]: the logP is recorded as 3.56. As to `Cc1nc2nc(Cl)c(-c3c(F)cccc3F)c(NOCC(C)C)n2n1` [compound 135], the lipophilicity (logP) is on record as 2.88.

`COC(=O)C(C)Nc1c(-c2c(F)cc(F)cc2F)c(Cl)nc2nc(C)nn12` (centres unmarked) [compound 124] showed a logP of 2.45. As for `CCc1nc2nc(Cl)c(-c3c(F)cc(F)cc3F)c(N3CCCCC3C(F)(F)F)n2n1` (centres unmarked) [compound 94], the log partition coefficient (logP) is 4.27. `CC1(C)CCN(c2c(-c3ccc(F)cc3F)c(Cl)nc3nc(C(F)(F)F)nn23)CC1` [compound 800] came in with a logP of 5.03. For `CC(=O)NC1CCN(c2c(-c3ccc(F)cc3F)c(Cl)nc3nc(C4CC4)nn23)C1` (centres unmarked) [compound 728], the logP is reported as 2.17.

These data come from patent publication US7186831B2, “5-halo-2-alkyl[1,2,4]triazolo[1,5-a]pyrimidin-7-amines” (priority 2001, dated 2007).
